target: T1, hCX3CR1 (Homo sapiens, UniProt P49238); experiment: in vitro hCX3CR1 binding assay ([125I]-fractalkine competition binding, membranes); details: final compounds
T1 construct: expressed in transfected cells; host or cells: human embryonic kidney suspension (HEKS) 293 cells stably expressing chimeric G-protein Gαqi5; membranes prepared from them
T1 sequence (P49238 1-355): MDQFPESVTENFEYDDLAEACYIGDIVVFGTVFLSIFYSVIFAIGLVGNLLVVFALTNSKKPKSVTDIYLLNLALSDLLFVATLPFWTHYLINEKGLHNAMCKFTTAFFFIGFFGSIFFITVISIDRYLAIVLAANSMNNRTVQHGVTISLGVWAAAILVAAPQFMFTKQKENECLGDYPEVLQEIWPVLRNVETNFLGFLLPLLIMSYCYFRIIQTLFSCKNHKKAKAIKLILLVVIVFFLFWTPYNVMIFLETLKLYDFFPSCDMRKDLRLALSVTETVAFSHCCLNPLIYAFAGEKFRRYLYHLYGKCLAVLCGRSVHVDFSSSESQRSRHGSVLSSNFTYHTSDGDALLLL
Source text: Recombinant human fractalkine (hCX3CL1) and recombinant human interleukin-8 (IL-8 or hCXCL8) were purchased from PeproTech Inc., UK. Recombinant [^125I]-fractalkine (human) and [^125I]hIL-8 with the specific activity of 2200 Ci/mmol, was purchased from NEN® Life Science Products, Inc., UK. Fluo-4-AM was purchased from Molecular Probes, US. All other chemicals were of analytical grade.
The complete human CX3CR1 cDNA (GenBank accession number U20350) was extracted from human brain mRNA (Superscript, Life Technologies) and ligated into pCR-Blunt II TOPO vector (InVitrogen). The insert corresponding hCX3CR1 was isolated and further subcloned into pcDNA3.1zeo. Plasmid DNA was prepared using Plasmid Midi Kit (Qiagen). Using Superfect Transfection Reagent (Qiagen) according to the manufacturer's protocol the expression plasmid for hCX3CR1 was then introduced into human embryonic kidney suspension (HEKS) 293 cell line containing a vector for stable expression of a chimeric G-protein Gαqi5. A stable clone was generated utilizing zeocin (500 μg/mL) and hygromycin (100 μg/mL) selection. For further applications the cells were maintained in Dulbecco's modified Eagle's medium/Ham's nutrient mix F12 (DMEM/F12) containing pyridoxine and supplemented with 10% (v/v) fetal bovine serum, 2 mM L-glutamine, 100 U/ml penicillin and […] streptomycin, 250 μg/mL zeocin and 100 μg/mL hygromycin.
Cells are grown at 37° C. and 5% CO2 and harvested at 60-80% confluence in buffer containing 10 mM Tris-HCl pH 7.4, 5 mM EDTA, 0.1 mg/mL bacitracin. The cells are centrifuged at 300×g for 10 min and the pellet is resuspended in harvesting buffer (10 mM Tris-HCl, pH 7.4, 5 mM ethylenediaminetetra-aceticacid (EDTA) and 0.1 mg/mL bacitracin), pooled and homogenised using a Dounce homogeniser. The homogenate is centrifuged in 48000×g for 10 min and resuspended in harvesting buffer using Ultra-Turrax T8. Membrane aliquots are stored at −80° C. Protein concentration was determined in microtiter plates as described by Harrington (1990, Anal. Biochem. 186, 285-287).
Competition binding studies of [^125I]fraktalkine were performed in 2 mL 96-deep-well plates (Beckman, Germany) in a total volume of 1000 μL/well. Each well contained […] [^125I]-fractalkine and membrane equivalent to receptor concentration of 1 μM in assay buffer (50 mM Hepes-KOH, pH 7.4, 10 mM MgCl2, 1 mM EDTA, 0.1% (w/v) gelatine). Ten concentrations (2 points/log unit) of the test compounds were pre-dissolved in DMSO and added to reach a final concentration of 1% (v/v) DMSO. The assay was initiated with the addition of membranes and incubated at 25° C. for 24 h. The reactions were stopped by rapid filtration through Whatman GF/B glass fiber filters pretreated with 0.3% polyethylimine and subsequent washing with ice-cold buffer (10 mM Hepes-KOH pH 7.4, 500 mM NaCl) using a Brandel receptor binding harvester. Scintillation cocktail was added and radioactivity was determined in a Packard 2500TR liquid scintillation counter. (Perkin Elmer, USA)

Row | Structure (SMILES) | Ki
1 | CC(C)C[C@H](CO)Nc1nc(S[C@@H](C)c2ccc(Cl)cn2)nc2[nH]c(=O)sc12 [Example 1, 5-{[(1S)-1-(5-Chloropyridin-2-yl)ethyl]thio}-7-{[(1R)-1-(hydroxymethyl)-3-methylbutyl]amino}[1,3]thiazolo[4,5-d]pyrimidin-2(3H)-one] | 5.8 nM
2 | CC(C)C[C@H](CO)Nc1nc(S[C@@H](C)c2ccc(F)cn2)nc2[nH]c(=O)sc12 [Example 2, 5-{[(1S)-1-(5-Fluoropyridin-2-yl)ethyl]thio}-7-{[(1R)-1-(hydroxymethyl)-3-methylbutyl]amino}[1,3]thiazolo[4,5-d]pyrimidin-2(3H)-one] | 20 nM
3 | CC(C)C[C@H](CO)Nc1nc(S[C@@H](C)c2ncccc2F)nc2[nH]c(=O)sc12 [Example 4, 5-{[(1S)-1-(3-Fluoropyridin-2-yl)ethyl]thio}-7-{[(1R)-1-(hydroxymethyl)-3-methylbutyl]amino}[1,3]thiazolo[4,5-d]pyrimidin-2(3H)-one] | 18 nM
4 | CCC[C@H](CO)Nc1nc(S[C@@H](C)c2ccc(Cl)nc2)nc2[nH]c(=O)sc12 [Example 6, 5-{[(1S)-1-(6-Chloropyridin-3-yl)ethyl]thio}-7-{[(1R)-1-(hydroxymethyl)butyl]amino}[1,3]thiazolo[4,5-d]pyrimidin-2(3H)-one] | 21.4 nM
5 | CCC[C@H](CO)N(C)c1nc(S[C@@H](C)c2ccc(Cl)nc2)nc2[nH]c(=O)sc12 [Example 7, 5-{[(1S)-1-(6-Chloropyridin-3-yl)ethyl]thio}-7-[[(1R)-1-(hydroxymethyl)butyl](methyl)amino][1,3]thiazolo[4,5-d]pyrimidin-2(3H)-one] | 440 nM
6 | CC(C)C[C@H](CO)Nc1nc(S[C@H](C)c2ccncc2F)nc2[nH]c(=O)sc12 [Example 8a, 5-{[(1R)-1-(3-Fluoropyridin-4-yl)ethyl]thio}-7-{[(1R)-1-(hydroxymethyl)-3-methylbutyl]amino}[1,3]thiazolo[4,5-d]pyrimidin-2(3H)-one] | 97 nM
7 | CC(C)C[C@H](CO)Nc1nc(S[C@@H](C)c2ccncc2F)nc2[nH]c(=O)sc12 [Example 8b, 5-{[(1S)-1-(3-Fluoropyridin-4-yl)ethyl]thio}-7-{[(1R)-1-(hydroxymethyl)-3-methylbutyl]amino}[1,3]thiazolo[4,5-d]pyrimidin-2(3H)-one] | 1.5 nM

From US7960395B2, “5,7-disubstituted thiazolo[4,5-d]pyrimidines for the selective inhibition of chemokine receptors” (AstraZeneca AB, priority 2006, dated 2011)
